Data on 26 compounds can be found in US8802673B2, “Heterocyclic amine derivatives” (Hoffmann-La Roche Inc, priority 2011, dated 2014).

Assay [1] has as its target rat TAAR1 (Rattus norvegicus (Rat), UniProt Q923Y9). Nature of the assay: Radioligand binding assay on rat TAAR1. Conditions: rat TAAR1 (second value of the cell), HEK-293 membranes; read-out: Ki (μM) mouse/rat. On the procedure:
(§1) Construction of TAAR Expression Plasmids and Stably Transfected Cell Lines
(§2) For the construction of expression plasmids the coding sequences of human, rat and mouse TAAR 1 were amplified from genomic DNA essentially as described by Lindemann et al.. The Expand High Fidelity PCR System (Roche Diagnostics) was used with 1.5 mM Mg^2+ and purified PCR products were cloned into pCR2.1-TOPO cloning vector (Invitrogen) following the instructions of the manufacturer. PCR products were subcloned into the pIRESneo2 vector (BD Clontech, Palo Alto, Calif.), and expression vectors were sequence verified before introduction in cell lines.
(§3) HEK293 cells (ATCC #CRL-1573) were cultured essentially as described by Lindemann et al. (2005). For the generation of stably transfected cell lines HEK293 cells were transfected with the pIRESneo2 expression plasmids containing the TAAR coding sequences (described above) with Lipofectamine 2000 (Invitrogen) according to the instructions of the manufacturer, and 24 hrs post transfection the culture medium was supplemented with 1 mg/ml G418 (Sigma, Buchs, Switzerland). After a culture period of about 10 d clones were isolated, expanded and tested for responsiveness to trace amines (all compounds purchased from Sigma) with the cAMP Biotrak Enzyme immunoassay (EIA) System (Amersham) following the non-acetylation EIA procedure provided by the manufacturer.
Radioligand Binding Assay on Rat TAAR1
Membrane Preparation and Radioligand Binding
(§4) HEK-293 cells stably expressing rat TAAR1 were maintained at 37° C. and 5% CO2 in DMEM high glucose medium, containing fetal calf serum (10%, heat inactivated for 30 min at 56° C.), penicillin/streptomycin (1%), and 375 μg/ml geneticin (Gibco). Cells were released from culture flasks using trypsin/EDTA, harvested, washed twice with ice-cold PBS (without Ca^2+ and Mg^2+), pelleted at 1,000 rpm for 5 min at 4° C., frozen and stored at −80° C. Frozen pellets were suspended in 20 ml HEPES-NaOH (20 mM, pH 7.4) containing 10 mM EDTA and homogenized with a Polytron (PT 6000, Kinematica) at 14,000 rpm for 20 s. The homogenate was centrifuged at 48,000×g for 30 min at 4° C. Subsequently, the supernatant was removed and discarded, and the pellet resuspended in 20 ml HEPES-NaOH (20 mM, pH 7.4) containing 0.1 mM EDTA using the Polytron (20 s at 14,000 rpm). This procedure was repeated and the final pellet resuspended in HEPES-NaOH containing 0.1 mM EDTA and homogenized using the Polytron. Typically, aliquots of 2 ml membrane portions were stored at −80° C. With each new membrane batch the dissociation constant (Kd) was determined via a saturation curve. […] All compounds were tested at a broad range of concentrations (10 pM to 10 μM) in duplicates. […] The 96 deep well plates were incubated for 1 hr at 4° C. Incubations were terminated by rapid filtration through Unifilter-96 plates (Packard Instrument Company) and glass filters GF/C (Perkin Elmer) presoaked for 1 hr in polyethylenimine (0.3%) and washed 3 times with 1 ml of cold binding buffer. After addition of 45 μl of Microscint 40 (PerkinElmer) the Unifilter-96 plate was sealed and after 1 hr the ratioactivity counted using a TopCount Microplate Scintillation Counter (Packard Instrument Company).

Assay [2] has as its target mouse TAAR1 (Mus musculus (Mouse), UniProt Q923Y8). As to the kind of experiment: Radioligand binding assay on mouse TAAR1. Conditions: mouse TAAR1 (first value of the cell), HEK-293 membranes; read-out: Ki (μM) mouse/rat. On the procedure:
as §1, §2, §3
Radioligand Binding Assay on Mouse TAAR1
Membrane Preparation and Radioligand Binding.
as §4, with “expressing mouse” for “expressing rat”

Chain of mouse TAAR1 (Q923Y8 whole entry): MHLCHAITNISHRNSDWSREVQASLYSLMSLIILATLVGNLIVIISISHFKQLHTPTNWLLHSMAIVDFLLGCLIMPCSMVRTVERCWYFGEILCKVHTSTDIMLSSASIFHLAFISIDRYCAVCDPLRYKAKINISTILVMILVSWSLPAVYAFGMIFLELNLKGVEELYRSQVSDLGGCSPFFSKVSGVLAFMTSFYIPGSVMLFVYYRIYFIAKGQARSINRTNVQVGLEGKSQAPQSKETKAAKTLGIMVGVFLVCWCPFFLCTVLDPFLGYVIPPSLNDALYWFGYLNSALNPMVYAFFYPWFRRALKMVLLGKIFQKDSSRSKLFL
Chain of rat TAAR1 (Q923Y9 whole entry): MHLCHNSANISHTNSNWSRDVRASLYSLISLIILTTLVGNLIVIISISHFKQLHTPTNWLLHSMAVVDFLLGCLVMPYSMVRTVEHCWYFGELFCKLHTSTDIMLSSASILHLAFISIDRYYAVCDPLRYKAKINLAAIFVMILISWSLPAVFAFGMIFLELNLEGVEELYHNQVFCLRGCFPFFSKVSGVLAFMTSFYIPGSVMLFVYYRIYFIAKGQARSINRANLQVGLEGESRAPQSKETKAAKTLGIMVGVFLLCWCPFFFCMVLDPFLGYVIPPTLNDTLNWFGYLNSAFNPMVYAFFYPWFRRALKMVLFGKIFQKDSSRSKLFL

For `FC(F)(F)c1ccc(CNc2ccc([C@H]3CNCCO3)cc2)cc1` [Example 24, ((S)-4-Morpholin-2-yl-phenyl)-(4-trifluoromethyl-benzyl)-amine], the Ki came out at 0.149 µM in assay [1] and 0.0119 µM in assay [2].
The like results for `FC(F)(F)Oc1ccc(CNc2ccc([C@H]3CNCCO3)cc2)cc1` [Example 25, ((S)-4-Morpholin-2-yl-phenyl)-(4-trifluoromethoxy-benzyl)-amine] were, in that order, 0.0705 µM and 0.0124 µM.
The like results for `Clc1ccc2nc(Nc3ccc([C@H]4CNCCO4)cc3)sc2c1` [Example 26, (6-Chloro-benzothiazol-2-yl)-((S)-4-morpholin-2-yl-phenyl)-amine] were, in that order, 0.0083 µM and 0.002 µM.
With `Brc1ccc(CNc2ccc([C@H]3CNCCO3)cc2)nc1` [Example 27, (5-Bromo-pyridin-2-ylmethyl)-((S)-4-morpholin-2-yl-phenyl)-amine], the Ki came out at 0.808 µM in assay [1] and 0.0438 µM in assay [2].
The like results for `COc1cccc(CNc2ccc([C@H]3CNCCO3)cc2)n1` [Example 28, (6-Methoxy-pyridin-2-ylmethyl)-((S)-4-morpholin-2-yl-phenyl)-amine] were, in that order, 0.561 µM and 0.276 µM.
The like results for `CCOc1cnc(Nc2ccc([C@H]3CNCCO3)cc2)nc1` [Example 29, (5-Ethoxy-pyrimidin-2-yl)-((S)-4-morpholin-2-yl-phenyl)-amine] were, in that order, 0.155 µM and 0.0042 µM.
Consider `Clc1ccc(CNc2ccc([C@H]3CNCCO3)cc2)cc1Cl` [Example 30, (3,4-Dichloro-benzyl)-((S)-4-morpholin-2-yl-phenyl)-amine], for which the Ki amounted to 0.0417 µM in assay [1] and 0.0051 µM in assay [2].
Take `Fc1ccc(CNc2ccc([C@H]3CNCCO3)cc2)cc1` [Example 31, (4-Fluoro-benzyl)-((S)-4-morpholin-2-yl-phenyl)-amine]: the Ki in assay [1] came out at 0.222 µM; in assay [2] it was 0.0452 µM.
`Clc1ccc(CNc2ccc([C@H]3CNCCO3)cc2)cn1` [Example 32, (S)—N-((6-Chloropyridin-3-yl)methyl)-4-(morpholin-2-yl)aniline]: the figures for the Ki in assay [1] and in assay [2] were 1.24 µM and 0.0357 µM, respectively.
Regarding `FC(F)(F)c1ccc(CNc2ccc([C@H]3CNCCO3)cc2)cn1` [Example 33, (S)-4-(Morpholin-2-yl)-N-((6-(trifluoromethyl)pyridin-3-yl)methyl)aniline], the Ki in assay [1] was 0.544 µM; in assay [2] it was 0.047 µM.
The matching figures for `Clc1ccc(CCNc2ccc([C@H]3CNCCO3)cc2)cc1` [Example 34, [2-(4-Chloro-phenyl)-ethyl]-((S)-4-morpholin-2-yl-phenyl)-amine]: 0.0181 µM and 0.0042 µM.
The matching figures for `Fc1cc(Cl)ccc1CNc1ccc([C@H]2CNCCO2)cc1` [Example 35, (4-Chloro-2-fluoro-benzyl)-((S)-4-morpholin-2-yl-phenyl)-amine]: 0.188 µM and 0.0096 µM.
As to `CCc1ccc(CNc2ccc([C@H]3CNCCO3)cc2)cc1` [Example 36, (4-Ethyl-benzyl)-((S)-4-morpholin-2-yl-phenyl)-amine], the Ki was found to be 0.163 µM in assay [1] and 0.0288 µM in assay [2].
The like results for `Clc1ccc(Nc2ccc([C@H]3CNCCO3)cc2)nc1` [Example 38, (5-Chloro-pyridin-2-yl)-((S)-4-morpholin-2-yl-phenyl)-amine] were, in that order, 0.0544 µM and 0.0011 µM.
On to `COc1ccnc(Nc2ccc([C@H]3CNCCO3)cc2)c1` [Example 39, (S)-4-Methoxy-N-(4-(morpholin-2-yl)phenyl)pyridin-2-amine], for which the Ki was 0.251 µM in assay [1] and 0.004 µM in assay [2].
The matching figures for `Fc1cc(Nc2ccc([C@H]3CNCCO3)cc2)cnc1Cl` [Example 40, (S)-6-Chloro-5-fluoro-N-(4-(morpholin-2-yl)phenyl)pyridin-3-amine]: 0.188 µM and 0.0026 µM.
The like results for `FC(F)(F)c1cccnc1Nc1ccc([C@H]2CNCCO2)cc1` [Example 41, (S)—N-(4-(Morpholin-2-yl)phenyl)-3-(trifluoromethyl)pyridin-2-amine] were, in that order, 1.08 µM and 0.27 µM.
The like results for `FC(F)(F)c1ccnc(Nc2ccc([C@H]3CNCCO3)cc2)c1` [Example 42, (S)—N-(4-(Morpholin-2-yl)phenyl)-4-(trifluoromethyl)pyridin-2-amine] were, in that order, 0.0518 µM and 0.0023 µM.
As for `Fc1cncc(Nc2ccc([C@H]3CNCCO3)cc2)c1` [Example 43, (S)-5-Fluoro-N-(4-(morpholin-2-yl)phenyl)pyridin-3-amine], the values for the Ki in assay [1] and in assay [2] were 0.648 µM and 0.0269 µM, respectively.
Regarding `c1ccc2cc(Nc3ccc([C@H]4CNCCO4)cc3)ccc2c1` [Example 44, ((S)-4-Morpholin-2-yl-phenyl)-naphthalen-2-yl-amine], the Ki in assay [1] was 0.0118 µM; in assay [2], 0.0007 µM.
For the compound `Brc1ccc(CNc2ccc([C@H]3CNCCO3)cc2)cc1` [Example 45, (4-Bromo-benzyl)-((S)-4-morpholin-2-yl-phenyl)-amine], the Ki in assay [1] came to 0.126 µM; in assay [2], 0.0061 µM.
The like results for `c1ccc2nc(Nc3ccc([C@H]4CNCCO4)cc3)ccc2c1` [Example 46, ((S)-4-Morpholin-2-yl-phenyl)-quinolin-2-yl-amine] were, in that order, 0.0643 µM and 0.0008 µM.
The like results for `Clc1ccc2nc(Nc3ccc([C@H]4CNCCO4)cc3)ccc2c1` [Example 47, (S)-6-Chloro-N-(4-(morpholin-2-yl)phenyl)quinolin-2-amine] were, in that order, 0.0067 µM and 0.0012 µM.
The matching figures for `FC(F)(F)c1cc(Nc2ccc([C@H]3CNCCO3)cc2)c2cccc(C(F)(F)F)c2n1` [Example 49, (S)—N-(4-(Morpholin-2-yl)phenyl)-2,8-bis(trifluoromethyl)quinolin-4-amine]: 0.104 µM and 0.0266 µM.
With `Clc1ccc2ncnc(Nc3ccc([C@H]4CNCCO4)cc3)c2c1` [Example 50, (S)-6-Chloro-N-(4-(morpholin-2-yl)phenyl)quinazolin-4-amine], the results for the Ki in assay [1] and in assay [2] were 0.0608 µM and 0.005 µM, respectively.
The matching figures for `Clc1nc2ccccc2cc1CNc1ccc([C@H]2CNCCO2)cc1` [Example 51, (S)—N-((2-Chloroquinolin-3-yl)methyl)-4-(morpholin-2-yl)aniline]: 0.28 µM and 0.0363 µM.
